Where two headings read alike, the source gives them in different places.
Assays:
P-glycoprotein (Pgp) = assay: Pgp-induction assay, rhodamine123 (Rh123) cell exclusion method in LS180 cells; assay type: cell-based; settings: for EC50: 48 h treatment, Rh123 fluorescence; for Pgp induction activity compared to parent natural product: 1b, 1g versus garcinol (1a), 2b versus isogarcinol (2a)
Method: All synthesized compounds were screened for their ability to induce Pgp by using rhodamine123 (Rh123) cell exclusion method. In this method, the Pgp function was evaluated in terms of rhodamine 123 (Rh123) accumulations and efflux. Briefly, the protocol used is as follows: Colorectal LS180 cells Colorectal LS-180 cells [obtained from ECACC (European Collection of Cell Cultures) catalogue number: 87021202; passage number 52] were seeded at a density of 2×10^4 per well of 96 well plate and were allowed to grow for next 24 h. Cells were further incubated with the test compounds, and were diluted to a final concentration of 100 nM and rifampicin (standard) to a final concentration of 10 μM in complete media for 48 h. The final concentration of DMSO was kept at 0.1%. Drugs were removed and cells were incubated with HANKS buffer for 40 minutes before further incubation with HANKS buffer (containing 10 μM of Rh123 as a Pgp substrate) for 90 minutes. At the end of Rh123 treatment cells were washed four times with cold PBS followed by cell lysis for 1 h by using 200 μl of lysis buffer (0.1% Triton X-100 and 0.2 N NaOH). A total of 100 μl of lysate was used for reading fluorescence of Rh123 at 485 nm/529 nm. Samples were normalized by dividing fluorescence of each sample with total protein present in the lysate. […] For EC50 determination, different concentrations of compound were used to treat LS180 cells for 48 h. EC50 was determined by plotting fluorescence of Rh123 against concentration of compound.

in vitro = settings: human
Method: (§1) Compounds proposed in present invention were evaluated for their cytotoxic effect in LS-180 cells using MTT assay. In each well of a 96-well plate, 3×10^3 cells were grown in 100 μL of medium. After 24 h, each test molecules were added to achieve a final concentration of 10 to 0.01 μmol/L, respectively. After 48 h of treatment, 20 μL of 2.5 mg/mL MTT solution in phosphate buffer saline was added to each well. After 48 h, supernatant was removed and formazan crystals were dissolved in 200 μL of DMSO. Absorbance was then measured at 570 nm using an absorbance plate reader. Data are expressed as the percentage of viable cells in treated relative to non-treated conditions.

[1] = Cytotoxicity in LS-180 cells using MTT assay; settings: human
Method: as §1

[2] = LS-180 cells, read-out: Pgp induction EC50
[3] = LS180 cells, values in text, read-out: EC50 for p-glycoprotein induction activity

| EC50 (P-glycoprotein (Pgp); [2]) [nM] | IC50 at 48 h (in vitro) [nM] | EC50 (P-glycoprotein (Pgp); [3]) [nM] | Structure (SMILES) | Pgp induction activity compared to parent natural product (P-glycoprotein (Pgp); LS180 cells) | IC50 at 48 h [1] [nM] |
| --- | --- | --- | --- | --- | --- |
| 7 |  |  | CC(C)=CC[C@H]1C[C@@]23C[C@@H](CC=C(C)C)C(C)(C)[C@@](CC=C(C)C)(C(=O)C(C(=O)c4ccc(O)c(O)c4)=C2OC1(C)C)C3=O [Compound 2a, Isogarcinol, reference compound] |  | 11000 |
|  |  | 2.9 | CC(C)=CCOc1ccc(C(=O)C2=C3OC(C)(C)C(CC=C(C)C)CC34CC(CC=C(C)C)C(C)(C)C(CC=C(C)C)(C2=O)C4=O)cc1OCC=C(C)C (centres unmarked) [Compound 2b, 3′,4′-di-(O-prenyl)-isogarcinol] | better | 40000 |

Further lines, the molecule ahead of its results:

| Structure (SMILES) | EC50 (P-glycoprotein (Pgp); [2]) [nM] | IC50 at 48 h (in vitro) [nM] | EC50 (P-glycoprotein (Pgp); [3]) [nM] | Pgp induction activity compared to parent natural product (P-glycoprotein (Pgp); LS180 cells) | IC50 at 48 h [1] [nM] |
| --- | --- | --- | --- | --- | --- |
| C=C(C)[C@@H](CC=C(C)C)C[C@@]12C[C@@H](CC=C(C)C)C(C)(C)[C@@](CC=C(C)C)(C(=O)C(C(=O)c3ccc(O)c(O)c3)=C1O)C2=O [Compound 1a, Garcinol, reference compound] | 12 | 20000 |  |  |  |
| C=C(C)C(CC=C(C)C)CC12CC(CC=C(C)C)C(C)(C)C(CC=C(C)C)(C(=O)C(C(=O)c3ccc(OC(=O)CCC)c(OC(=O)CCC)c3)=C1O)C2=O (centres unmarked) [Compound 1b, 3′,4′-Di-(O-Butanoyl)-Garcinol] |  |  | 8.9 | better |  |
| C=C(C)C(CC=C(C)C)CC12CC(CC=C(C)C)C(C)(C)C(CC=C(C)C)(C(=O)C(C(=O)c3ccc(OCc4ccccc4[N+](=O)[O-])c(OCc4ccccc4[N+](=O)[O-])c3)=C1O)C2=O (centres unmarked) [Compound 1g, 3′,4′-di-[O-(2″-nitro-benzyl)]-garcinol] |  |  | 6.8 |  | > 100000 |

From patent US10202326B2, “Polyprenylated phloroglucinol compounds as potent P-glycoprotein inducers” (COUNCIL OF SCIENTIFIC & INDUSTRIAL RESEARCH, priority 2014, dated 2019)
